In publication PMC12566936, “DST-3, a Novel Modified Cryptotanshinone, Protects Against Pulmonary Fibrosis via Inhibiting STAT3/Smad Signaling Pathway and Improves Bioavailability” (Pharmaceutics, 2025):
Like-named read-outs stand apart in the source and are kept apart here.

Legend:
[1] = test system: TGF-β1-stimulated MRC5 cells; assay: TGF-β1-induced fibrosis in MRC5 (α-SMA, fibronectin, type I collagen; immunofluorescence and Western blot); assay type: cell-based; conditions: TGF-β1 5 ng/mL, 48 h
Procedure: (§1) Medical Research Council cell strain-5 (MRC5, ATCC, Manassas, VA, USA, Cat# CCL-171) was supplemented with 10% fetal bovine serum (GIBCO, Invitrogen, Carlsbad, CA, USA) in low-sugar DMEM medium (GIBCO, Invitrogen, Carlsbad, CA, USA) in an incubator containing 5% CO2 atmosphere at 37 °C.
MRC5 cells were fixed in 4% paraformaldehyde for 0.5 h, then permeated with 1% Triton X-100 (Sangon Biotech, Shanghai, China) for 10 min, and blocked with goat serum (BOSTER, Wuhan, China) for 1 h. The cells were then incubated with α-SMA or STAT3 (1:100 diluted) primary antibody overnight at 4 °C and secondary antibody at room temperature for 1 h. The nuclei were stained at room temperature with Hoechst 33,342 (1:100 diluted) for 10 min. Fluorescence images were captured using a laser scanning ultra-high resolution microscope (FV3000, Olympus Corporation, Tokyo, Japan).
MRC5 cells or lung tissues were washed with cold PBS and then lysed on ice using RIPA buffer (Beyotime Biotechnology, Shanghai, China) supplemented with protease and phosphatase inhibitors (Bimake, Boston, USA) for 0.5 h and centrifuged at 4 °C at 12,000× g for 15 min. […] (BCA protein Assay Kit, Pierce, Waltham, MA, USA) was used to determine protein concentration. […] Band strength was quantified by ImageJ software (version 1.53t, Bio-Rad, Rockford, IL, USA).

[2] = Pharmacokinetic study, single iv or oral administration in SD rats; assay type: in vivo; conditions: for concentration at 0.25 h / concentration at 0.5 h / concentration at 1 h / concentration at 2 h / concentration at 3 h / concentration at 4 h / concentration at 6 h / concentration at 8 h / concentration at 12 h / concentration at 24 h: n = 4; for MRT last: read-out: MRT0–t
Procedure: A total of 16 male SD rats, according to weight, were randomly divided into four groups (n = 4), a~d, as described in pharmacodynamics study: • (A) DST-3 intravenous injection of 6 mg/kg; • (B) DST-3 oral gavage of 60 mg/kg; • (C) CTS intravenous injection of 6 mg/kg; • (D) CTS oral gavage of 60 mg/kg.
Blood collection was performed in all rats at 0.25 h, 0.5 h, 1 h, 2 h, 3 h, 4 h, 6 h, 8 h, 12 h, and 24 h after administration.
The blank plasma for method validation was rapidly extracted from the main abdominal vein of SD rats. The sample for the pharmacokinetic study was obtained by taking 250 μL of blood from the orbit of SD rats. The blood was placed in a heparinized collection vessel, centrifuged at 3000 rpm for 10 min, and the upper plasma layer was taken.
A 100 μL sample was precisely measured, and 10 μL of loratadine working solution and 500 μL of ethyl acetate were added for liquid–liquid-extraction. The mixture was shaken for 1 min, centrifuged for 4 min at 12,000× g, and 400 μL of the upper organic phase was vacuum dried for 2 h. Then 100 μL of mobile phase (methanol-1% formic acid water (90:10, v/v)) was added, dissolved, vortexed for 1 min, and centrifuged at low temperature for 3 min at 12,000× g. The supernatant (80 μL) was placed in a sample bottle for HPLC-MS/MS analysis.
According to the non-compartmental model, the pharmacokinetic software DAS 2.0 was used to calculate the main pharmacokinetic parameters: maximum plasma concentration (Cmax), elimination half-life (t1/2), time to reach maximum plasma concentration (Tmax), mean residence time (MRT0–t), area under the plasma concentration curve from 0 to the last measured concentration (AUC0−t), AUC from 0 to infinity (AUC0–∞), apparent clearance rate (CL/F) and apparent distribution volume (V/F).

[3] = test system: BLM-induced pulmonary fibrosis in C57BL/6 mice; assay: BLM-induced pulmonary fibrosis model; assay type: in vivo; conditions: BLM 2 mg/kg; DST-3 15–60 mg/kg, CTS 30 mg/kg oral
Source text: Sixty male Sprague-Dawley (SD) rats were individually weighed one day prior to administration and randomly assigned to six groups (n = 10 per group) using a stratified randomization method to ensure balanced average body weights across groups (weight range: 220–260 g; inter-group mean weight difference < 5 g). The vehicle used for […] administration of both CTS and DST-3 was 0.5% sodium carboxymethyl cellulose (CMC-Na) solution. A–F: • (A) Normal saline + CMC–Na; • (B) BLM + 0.5% CMC–Na; • (C) BLM + DST-3 15 mg/kg; • (D) BLM + DST-3 30 mg/kg; • (E) BLM + DST-3 60 mg/kg; • (F) BLM + CTS 30 mg/kg.
Pulmonary fibrosis was induced in groups B–F by tracheal infusion of bleomycin 2 mg/kg, and in group A by normal saline. To create a suspension for oral administration, all DST-3 or CTS were dissolved in 0.5% CMC-Na. […]
HYP was specifically detected in collagen as a posttranslational product of proline hydroxylation. […] In this study, the content of HYP in lung tissue was determined by alkaline hydrolyzation. […] Each sample was measured at 550 nm to detect the absorbance, and the HYP content was calculated according to the following formula: Hydroxproline content (μg/mg) =Measured OD value -Blank OD value/Standard OD value -Blank OD value× Stand content ×Lysate total volume (mL)/Organization wet weight (mg) […]

[4] = cited from earlier work
MRC5 cells = assay: CCK8 cell viability assay; assay type: cell-based; conditions: 20 μM, 48 h
Procedure: as §1
The cells were seeded in 96-well plates for 24 h and treated with DST-3 (1.25, 2.5, 5, 10, 20 μM) at different concentrations for 48 h. The CCK8 kit (Beyotime, Shanghai, China) was used to test the cytotoxic effect of DST-3 on MRC5 cells. Medium solution of 10% CCK8 was added to each well and incubated at 37 °C for 2 h. Absorbance was measured at 450 nm (BioTek, Elx800, Winooski, VT, USA).

[5] = male, rat, plasma, iv 6 mg/kg, n = 4, mean ± SD
[6] = male, rat, plasma, oral 60 mg/kg
[7] = male, rat, plasma, po, ig 60 mg/kg, n = 4, mean ± SD

C[C@H]1COC2=C1C(=O)C(=O)c1c2ccc2c1CCCC2(C)C [CTS, Cryptotanshinone]
expression of α-SMA and ECM proteins [1]: downregulate the overexpression
V/F ([2]; ig 60 mg/kg, n = 4, mean ± SD): 1391 ± 382.0 L
V/F ([2]; iv 6 mg/kg, n = 4, mean ± SD): 87.70 ± 59.30 L
concentration at 0.25 h ([2]; male, rat, plasma, iv 6 mg/kg): 341 ng/mL
concentration at 0.5 h ([2]; male, rat, plasma, iv 6 mg/kg): 167 ng/mL
concentration at 1 h ([2]; male, rat, plasma, iv 6 mg/kg): 91.7 ng/mL
concentration at 2 h ([2]; male, rat, plasma, iv 6 mg/kg): 73.9 ng/mL
concentration at 3 h ([2]; male, rat, plasma, iv 6 mg/kg): 62.8 ng/mL
concentration at 4 h ([2]; male, rat, plasma, iv 6 mg/kg): 45.7 ng/mL
concentration at 6 h ([2]; male, rat, plasma, iv 6 mg/kg): 29.9 ng/mL
concentration at 8 h ([2]; male, rat, plasma, iv 6 mg/kg): 19 ng/mL
concentration at 12 h ([2]; male, rat, plasma, iv 6 mg/kg): 10.2 ng/mL
concentration at 24 h ([2]; male, rat, plasma, iv 6 mg/kg): 4.8 ng/mL
AUC(0-inf) [2, 5]: 671 ± 168 ng·h/mL
AUC(0-t) [2, 5]: 631 ± 157 ng·h/mL
Cmax [2, 5]: 341 ± 14.9 ng/mL
half-life [2, 5]: 6.8 ± 3.7 h
MRT last [2, 5]: 5.1 ± 0.3 h
concentration at 0.25 h [2, 6]: 11.7 ng/mL
concentration at 0.5 h [2, 6]: 13.6 ng/mL
concentration at 1 h [2, 6]: 18.9 ng/mL
concentration at 2 h [2, 6]: 16.3 ng/mL
concentration at 3 h [2, 6]: 23 ng/mL
concentration at 4 h [2, 6]: 34.8 ng/mL
concentration at 6 h [2, 6]: 29.4 ng/mL
concentration at 8 h [2, 6]: 31 ng/mL
concentration at 12 h [2, 6]: 17.5 ng/mL
concentration at 24 h [2, 6]: 8.9 ng/mL
bioavailability ([2]; male, rat, plasma, oral, ig 60 mg/kg vs iv 6 mg/kg, AUCig/AUCiv × 100%, read-out: absolute bioavailability): 8.56%
AUC(0-inf) [2, 7]: 574 ± 51 ng·h/mL
AUC(0-t) [2, 7]: 458 ± 22.8 ng·h/mL
Cmax [2, 7]: 39.5 ± 6.8 ng/mL
Tmax [2, 7]: 4.5 ± 1 h
half-life [2, 7]: 9.3 ± 3 h
MRT last [2, 7]: 15.7 ± 2.8 h
histopathology (HE and Masson staining): inflammatory infiltration and fibrosis severity [3]: reduced inflammatory infiltration and fibrosis severity
oral bioavailability ([4]; CTS is a substrate of P-glycoprotein): 2.05%
oral bioavailability ([4]; typically): below 10%
cell viability (cytotoxicity) (MRC5 cells): significantly decreased
